In patent publication US7435732B2, “Crystalline polymorphs of (3S)-N-hydroxy-4-({4-[-(4-hydroxy-2-butynyl)oxy]phenyl}sulfonyl)-2,2-dimethyl-3-thiomorpholine carboxamide” (Wyeth, priority 2004, dated 2008):
Where two headings read alike, the source gives them in different places. One block for each molecule: values may come before it.

Columns and labels:
[1] = Solid form conversion under humidity / ambient conditions; assay type: physicochemical
Method: Polymorph form B is likely also an anhydrous form of apratastat. […] Form B disappears upon mild heating (e.g., at or above about 35° C.) under ambient humidity levels.

[2] = Solid form after open pan DSC heating, by powder XRD; assay type: physicochemical
Method: X-ray diffraction data (e.g., FIGS. 1, 4, 6 and 8) were collected using a Philips X'Pert PW-3040-MPD X-ray diffractometer (Philips, Bothell, Wash.) set at 40 kV and 40 mA. Data was collected as a continuous scan at 0.02°/sec. between […].
DSC data (e.g., FIG. 10) were collected using a TA Instruments DSC 2920 Differential Scanning Calorimeter (TA Instruments, New Castle, Del.). Measurements were carried out in both closed pan and open pan modes on about 5-35 mg samples. The heating profile was from 25° C. to 170° C. at 5° C./min, or 25° C. to 120° C. at 5° C./min with a ten minute holding time at 120° C., or 25° C. to 135° C. at 5° C./min with a five minute holding time at 135° C., or 25° C. to 150° C. at 5° C./min with a one minute holding time at 150° C.
A micronized sample of apratastat polymorph form A was subjected to three separate DSC experiments performed in the open pan mode as described in Example 5 above using the 120° C., 135° C., and 150° C. heating profiles. Each sample was cooled to ambient temperature and then recovered for powder X-ray diffraction (XRD) analysis as described in Example 2.
A milled sample of apratastat polymorph form A was subjected to similar DSC conditions.

[3] = test system: human synovium tissue explants from patients suffering from rheumatoid arthritis; assay: TNF-α secretion by human synovium tissue explants; assay type: cell-based
[4] = biological target: T1, TNF-α converting enzyme (TACE) (Homo sapiens, UniProt P78536); assay: TACE inhibition in vitro; assay type: biochemical
T1 sequence (P78536 215-824, species assumed): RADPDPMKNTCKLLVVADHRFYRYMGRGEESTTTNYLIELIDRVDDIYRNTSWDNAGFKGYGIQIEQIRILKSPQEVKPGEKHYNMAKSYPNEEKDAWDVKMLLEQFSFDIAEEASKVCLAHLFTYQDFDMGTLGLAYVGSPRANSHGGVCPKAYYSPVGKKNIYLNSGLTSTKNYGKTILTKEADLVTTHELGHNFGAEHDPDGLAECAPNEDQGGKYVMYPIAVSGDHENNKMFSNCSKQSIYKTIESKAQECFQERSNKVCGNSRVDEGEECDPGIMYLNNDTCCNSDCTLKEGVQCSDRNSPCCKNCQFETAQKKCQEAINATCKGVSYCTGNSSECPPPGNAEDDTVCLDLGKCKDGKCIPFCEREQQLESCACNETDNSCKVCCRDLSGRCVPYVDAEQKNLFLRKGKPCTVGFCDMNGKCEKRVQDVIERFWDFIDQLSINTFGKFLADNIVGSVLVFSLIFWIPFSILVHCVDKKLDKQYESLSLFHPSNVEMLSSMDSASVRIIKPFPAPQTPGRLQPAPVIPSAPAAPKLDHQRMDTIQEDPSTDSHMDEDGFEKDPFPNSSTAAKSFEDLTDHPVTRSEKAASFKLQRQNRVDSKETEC

TNF-α [5] = assay: primate lipopolysaccharide (LPS) model; assay type: in vivo
[6] = test system: matrix metalloproteinase (MMP); details: cited from earlier work
TNF-α [7] = assay: murine lipopolysaccharide (LPS) model; assay type: in vivo
[8] = biological target: T1, TNF-α converting enzyme (TACE); details: as described in U.S. Pat. No. 6,225,311; cited from earlier work

solid form stability under ambient conditions ([1]; ambient conditions, little or no energy input): can convert back to form A | solid form stability upon mild heating ([1]; at or above about 35° C., ambient humidity levels): disappears
SMILES: CC1(C)SCCN(S(=O)(=O)c2ccc(OCC#CCO)cc2)[C@H]1C(=O)NO [Form B, (3S)-N-hydroxy-4-({4-[(4-hydroxy-2-butynyl)oxy]phenyl}sulfonyl)-2,2-dimethyl-3-thiomorpholinecarboxamide]

XRD form after heating ([2]; micronized sample, 120° C. heating profile, open pan): Form C | XRD form after heating ([2]; micronized sample, 135° C. heating profile, open pan): Form C | XRD form after heating ([2]; micronized sample, 150° C. heating profile, open pan): Amorphous | XRD form after heating ([2]; milled sample, 120° C. heating profile): Form C + D | XRD form after heating ([2]; milled sample, 135° C. heating profile): Form C + D | XRD form after heating ([2]; milled sample, 150° C. heating profile): Form D
SMILES: CC1(C)SCCN(S(=O)(=O)c2ccc(OCC#CCO)cc2)[C@H]1C(=O)NO [apratastat polymorph form A, (3S)-N-hydroxy-4-({4-[(4-hydroxy-2-butynyl)oxy]phenyl}sulfonyl)-2,2-dimethyl-3-thiomorpholinecarboxamide]
solid form stability in low-moisture environment ([1]; about 4-5% relative humidity, at or near room temperature): a portion or all of the polymorph may convert to a new form (form B)

SMILES: CC1(C)SCCN(S(=O)(=O)c2ccc(OCC#CCO)cc2)[C@H]1C(=O)NO [apratastat, (3S)-N-hydroxy-4-({4-[(4-hydroxy-2-butynyl)oxy]phenyl}sulfonyl)-2,2-dimethyl-3-thiomorpholinecarboxamide]
inhibition of TNF-α secretion [3]: inhibits TNF-α secretion | inhibition of TACE [4]: potent, reversible, and competitive inhibitor | TNF-α inhibition (TNF-α [5]): potent TNF-α inhibitor | inhibition of MMP enzymes [6]: inhibitor | TNF-α inhibition (TNF-α [7]): potent TNF-α inhibitor | inhibition of TACE [8]: inhibitor
